{"source": "patent US20240391885A1", "about": "“FORMS OF LINERIXIBAT” (GLAXOSMITHKLINE INTELLECTUAL PROPERTY (NO. 2) LIMITED, priority 2020, published 2024)", "format_in_all_cases": "physicochemical", "key": {"[1]": {"assay": "Polymorph screen, relative stability of forms", "settings": "relative to the other forms identified from the form screen", "description": "Form I of linerixibat, a non-solvated crystalline form that melts with decomposition at onset temperature about 206° C. and peak temperature about 209° C., was identified as the predominant form of linerixibat from a polymorph screen study. Amorphous linerixibat and Form I were used as input material for polymorph screen experiments. […] Form I was obtained from a variety of screening samples, and the solvents used include water, methanol, ethanol, acetone, acetonitrile and ethyl acetate."}, "[2]": {"assay": "Solubility of linerixibat drug substance over pH 1.2-6.8 at 37±1° C. (Experiment 8a)", "settings": "for solubility at 1 h / solubility at 4 h / solubility at 24 h: 37 °C, thermodynamic from solid; for solubility at 1 h: 1-hr timepoint; for solubility at 4 h: 4-hr timepoint; for solubility at 24 h: 24-hr timepoint", "description": "The solubility of linerixibat drug substance, in respect of Form I and Form III, was determined over the pH range of 1.2-6.8 at 37±1° C. Eight pH values within this range, including buffers at pH 1.2, 4.5 and 6.8 were evaluated. The therapeutic dose for linerixibat is 40 mg.\n• SGF=simulated gastric fluid • BR=Britton Robinson"}, "[3]": {"assay": "Conversion of Form I to Form III under mechanical stress / tablet compression (13C SSNMR, XRPD)", "settings": "one manufacturing batch of Form I after the final (agitated) drying step; qualitative assessment by 13C SSNMR and XRPD", "text": "Upon investigation, this occurrence was attributed to a combination of a relatively large batch size in a smaller filter drier (agitated drying stage) resulting in the wet material being subjected to greater shear forces during agitation, causing some conversion of Form I to Form III. Conversion of Form I to Form III was also observed during tablet compression process. […] During formulation development, samples of the linerixibat compression blend were compacted in a device to mimic the full-scale tableting process. X-ray powder diffractograms (XRPD) were obtained on these “compacts.” As the compression force was increased, the XRPD pattern changed to give loss of intensity of some peaks and formation of other peaks. This indicated the presence of another solid state form, which was subsequently confirmed as Form III. […] The intensities of Form I and Form III peaks in the ^13C SSNMR spectrum qualitatively indicate similar populations of the two polymorphic forms in the sample of mixture. The ^13C SSNMR data were acquired using the same apparatus and conditions as Example 1e.\n^13C SSNMR data for linerixibat tablets, 90 mg of Form I compressed with different forces to achieve three different tensile strengths 1.6 MPa, 2.4 MPa and 3.2 MPa, were collected. The ^13C SSNMR data were acquired using the same apparatus and conditions as Example 1e. […]"}, "[4]": {"assay": "Solubility of drug substance samples in biorelevant media and sodium acetate buffer (Experiment 8b)", "settings": "for solubility at 1 h / solubility at 4 h / solubility at 24 h: thermodynamic from solid", "text": "Solubility data was obtained for drug substance samples of linerixibat Form I, linerixibat Form III, and additionally for a sample of Form I compressed to 100 MPa which therefore contained an amount of Form III, in order to replicate typical forces encountered during tablet manufacture.\nThe media used for the drug substance samples were biorelevant media likely to be experienced in the stomach and the intestine, namely Simulated Gastric Fluid (SGF) over an increasing pH range (1.6, 2.0 and 4.0) and Fasted State Simulated Intestinal Fluid (FaSSIF) at a pH of 6.5. Solubility data was also obtained in 50 mM sodium acetate buffer pH 4.5."}, "[5]": {"assay": "Miniaturised shake flask solubility in Britton-Robinson buffers and biorelevant media (Experiment 8c)", "settings": "37° C., 1, 4 and 24 hours; FIG. 25", "description": "Solubility of Form I and Form III was also measured in Britton-Robinson buffers (pH 2-8), determined and compared using a standardised miniaturised shake flask method via an automated platform using a development HPLC method for quantification post centrifugation and filtration. Samples were run at 37° C. and performed as 2 replicate preparations for each pH condition and 4 replicate preparations for each biorelevant media condition at 1, 4 and 24 hours."}, "[6]": {"settings": "Britton Robinson buffer, pH 3, aqueous buffer, nominal pH 3.0, BR buffer"}, "[7]": {"settings": "Britton Robinson buffer, pH 3.5, aqueous buffer, nominal pH 3.5, BR buffer"}, "[8]": {"settings": "Britton Robinson buffer, pH 3.8, aqueous buffer, nominal pH 3.8, BR buffer"}, "[9]": {"settings": "Britton Robinson buffer, pH 4, aqueous buffer, nominal pH 4.0, BR buffer"}, "[10]": {"settings": "Britton Robinson buffer, pH 5, aqueous buffer, nominal pH 5.0, BR buffer"}, "[11]": {"settings": "acetate buffer, pH 4.5, aqueous buffer, nominal pH 4.5, Acetate buffer"}, "[12]": {"settings": "phosphate buffer, pH 6.8, aqueous buffer, nominal pH 6.8, Phosphate buffer"}, "[13]": {"settings": "simulated gastric fluid (SGF), pH 1.2, simulated gastric fluid, nominal pH 1.2, SGF"}}, "data": [{"smiles": "CCCC[C@]1(CC)CS(=O)(=O)c2cc(CNC(CC(=O)O)CC(=O)O)c(OC)cc2[C@@H](c2ccccc2)N1", "note": "[Form I]", "values": [{"measurement": "relative stability of the form", "setting": "[1]", "value": "most stable form"}, {"measurement": "solubility at 1 h", "setting": "[2]; [6]", "value": 178, "unit": "µg/mL"}, {"measurement": "solubility at 4 h", "setting": "[2]; [6]", "value": 198, "unit": "µg/mL"}, {"measurement": "solubility at 24 h", "setting": "[2]; [6]", "value": 232, "unit": "µg/mL"}, {"measurement": "solubility at 1 h", "setting": "[2]; [7]", "value": 99, "unit": "µg/mL"}, {"measurement": "solubility at 4 h", "setting": "[2]; [7]", "value": 110, "unit": "µg/mL"}, {"measurement": "solubility at 24 h", "setting": "[2]; [7]", "value": 128, "unit": "µg/mL"}, {"measurement": "solubility at 1 h", "setting": "[2]; [8]", "value": 104, "unit": "µg/mL"}, {"measurement": "solubility at 4 h", "setting": "[2]; [8]", "value": 113, "unit": "µg/mL"}, {"measurement": "solubility at 24 h", "setting": "[2]; [8]", "value": 131, "unit": "µg/mL"}, {"measurement": "solubility at 1 h", "setting": "[2]; [9]", "value": 118, "unit": "µg/mL"}, {"measurement": "solubility at 4 h", "setting": "[2]; [9]", "value": 125, "unit": "µg/mL"}, {"measurement": "solubility at 24 h", "setting": "[2]; [9]", "value": 146, "unit": "µg/mL"}, {"measurement": "solubility at 1 h", "setting": "[2]; [10]", "value": 393, "unit": "µg/mL"}, {"measurement": "solubility at 4 h", "setting": "[2]; [10]", "value": 491, "unit": "µg/mL"}, {"measurement": "solubility at 24 h", "setting": "[2]; [10]", "value": 650, "unit": "µg/mL"}, {"measurement": "solubility at 1 h", "setting": "[2]; [11]", "value": 190, "unit": "µg/mL"}, {"measurement": "solubility at 4 h", "setting": "[2]; [11]", "value": 214, "unit": "µg/mL"}, {"measurement": "solubility at 24 h", "setting": "[2]; [11]", "value": 293, "unit": "µg/mL"}, {"measurement": "solubility classification", "setting": "[2]; all pHs in the physiological range except close to the solubility minimum (between pH 3.2 and pH 4.2), high solubility = above 0.16 mg/mL (40 mg in 250 mL)", "value": "highly soluble"}, {"measurement": "difference in solubility between Form I and Form III", "setting": "[2]; pH 1.2-6.8, 37±1° C.", "value": "no significant difference"}, {"measurement": "solubility at 1 h", "setting": "[2]; [12]", "value": "> 1000", "unit": "µg/mL"}, {"measurement": "solubility at 4 h", "setting": "[2]; [12]", "value": "> 1000", "unit": "µg/mL"}, {"measurement": "solubility at 24 h", "setting": "[2]; [12]", "value": "> 1000", "unit": "µg/mL"}, {"measurement": "solubility at 1 h", "setting": "[2]; [13]", "value": "> 1000", "unit": "µg/mL"}, {"measurement": "solubility at 4 h", "setting": "[2]; [13]", "value": "> 1000", "unit": "µg/mL"}, {"measurement": "solubility at 24 h", "setting": "[2]; [13]", "value": "> 1000", "unit": "µg/mL"}, {"measurement": "Form III content", "setting": "[3]", "value": "≤ 10", "unit": "% w/w"}, {"measurement": "solubility at 1 h", "setting": "[4]; 50 mM sodium acetate buffer, pH 4.5, aqueous buffer, 50 mM Sodium Acetate Buffer pH 4.5, 1 Hour", "value": 270, "unit": "µg/mL"}, {"measurement": "solubility at 4 h", "setting": "[4]; 50 mM sodium acetate buffer, pH 4.5, aqueous buffer, 50 mM Sodium Acetate Buffer pH 4.5, 4 Hours", "value": 280, "unit": "µg/mL"}, {"measurement": "solubility at 24 h", "setting": "[4]; 50 mM sodium acetate buffer, pH 4.5, aqueous buffer, 50 mM Sodium Acetate Buffer pH 4.5, 24 Hours", "value": 300, "unit": "µg/mL"}, {"measurement": "solubility at 1 h", "setting": "[4]; Fasted State Simulated Intestinal Fluid (FaSSIF), pH 6.5, fassif, FaSSIF pH 6.5, 1 Hour", "value": 5080, "unit": "µg/mL"}, {"measurement": "solubility at 4 h", "setting": "[4]; Fasted State Simulated Intestinal Fluid (FaSSIF), pH 6.5, fassif, FaSSIF pH 6.5, 4 Hours", "value": 5110, "unit": "µg/mL"}, {"measurement": "solubility at 24 h", "setting": "[4]; Fasted State Simulated Intestinal Fluid (FaSSIF), pH 6.5, fassif, FaSSIF pH 6.5, 24 Hours", "value": 5310, "unit": "µg/mL"}, {"measurement": "solubility at 1 h", "setting": "[4]; Simulated Gastric Fluid (SGF), pH 1.6, simulated gastric fluid, SGF pH 1.6, 1 Hour", "value": 7200, "unit": "µg/mL"}, {"measurement": "solubility at 4 h", "setting": "[4]; Simulated Gastric Fluid (SGF), pH 1.6, simulated gastric fluid, SGF pH 1.6, 4 Hours", "value": 7390, "unit": "µg/mL"}, {"measurement": "solubility at 24 h", "setting": "[4]; Simulated Gastric Fluid (SGF), pH 1.6, simulated gastric fluid, SGF pH 1.6, 24 Hours", "value": 7910, "unit": "µg/mL"}, {"measurement": "solubility at 1 h", "setting": "[4]; Simulated Gastric Fluid (SGF), pH 2, simulated gastric fluid, SGF pH 2.0, 1 Hour", "value": 1490, "unit": "µg/mL"}, {"measurement": "solubility at 4 h", "setting": "[4]; Simulated Gastric Fluid (SGF), pH 2, simulated gastric fluid, SGF pH 2.0, 4 Hours", "value": 1530, "unit": "µg/mL"}, {"measurement": "solubility at 24 h", "setting": "[4]; Simulated Gastric Fluid (SGF), pH 2, simulated gastric fluid, SGF pH 2.0, 24 Hours", "value": 1620, "unit": "µg/mL"}, {"measurement": "solubility at 1 h", "setting": "[4]; Simulated Gastric Fluid (SGF), pH 4, simulated gastric fluid, SGF pH 4.0, 1 Hour", "value": 150, "unit": "µg/mL"}, {"measurement": "solubility at 4 h", "setting": "[4]; Simulated Gastric Fluid (SGF), pH 4, simulated gastric fluid, SGF pH 4.0, 4 Hours", "value": 150, "unit": "µg/mL"}, {"measurement": "solubility at 24 h", "setting": "[4]; Simulated Gastric Fluid (SGF), pH 4, simulated gastric fluid, SGF pH 4.0, 24 Hours", "value": 160, "unit": "µg/mL"}, {"measurement": "solubility comparison of the forms", "setting": "[4]; all investigated physiologically relevant pH values (1.6 to 6.5)", "value": "Forms I and III have very similar solubilities at all investigated physiologically"}, {"measurement": "solubility comparison in biorelevant media", "setting": "[5]", "value": "very similar"}]}]}
